Key:
[1] = tested on: NF-κB; assay: EMSA of NF-κB DNA binding activity in nuclear extracts of LPS-stimulated THP-1 cells; assay type: cell-based, human; details: 1 μM compound 24 h
Experimental: EMSA: For preparation of nuclear extracts, 10^7 cells were used at each experimental point. Following treatment of the THP-1 cells with either 1 μM of compound A for 24 h and stimulation with 1 μg/ml LPS at the indicated times, the cells were washed twice in PBS, and the cells were extracted for protein. The cells were resuspended in 500 μl buffer A (20 mM HEPES (pH 7.8), 0.1 mM EDTA, 10 mM KCL) with a protease inhibitor mixture (1 mM DTT, 0.5 mM Pefablock). Afterwards, the cells were incubated on ice for 15 min, then 30 μl 10% NP 40 was added and the cells were centrifuged at 5000×g. Each cell pellet was then resuspended in 50 μl buffer B (buffer A with 400 mM NaCl) and vortexed, followed by incubation for 15 min at 4° C. and centrifugation at 5000×g for 5 min at 4° C. The supernatant from each cell pellet was collected and the protein concentration quantified using the BCA-200 protein assay kit from Pierce (Rockford, Ill., USA). The nuclear extracts were stored at −80° C.
Double-stranded κB oligos (5′-AGTTGAGGGGACTTTCCCAGGC-3′ and the complement strand) were purchased from Promega. […] After electrophoresis at 4° C., the gel was dried, and the protein-DNA complexes were visualized and quantified on the STORM 860 Phospholmager using the ImageQuaNT software (available from Molecular Dynamics).

[2] = tested on: NF-κB; assay: NF-κB-dependent luciferase assay in PC-3 cells, TNF-α stimulation; assay type: cell-based, human; details: compound 24 h before TNF-α 50 ng/ml 6 h
Experimental: (§1) The NF-κB-luciferase reporter plasmid (pBIIX) and pRL-TK control vector described in Example 1 were used for the luciferase assay,
The PC-3 cells were seeded at a density of 3×10^4 cells/cm^2 in 6 well-plates. The following day, the cells were co-transfected with construct DNA and pRL-TK vector using DOTAP liposomal transfection reagent (Boehringer Mannheim). The construct DNA (4.0 μg per well), the pRL-TK vector (1.0 μg per well), DOTAP (16.7 μl per well) and dH2O (total volume 100 μl per well) were carefully mixed and incubated for 15 min at 37° C. A growth medium without serum (900 μl per well) was added and the transfection mixture (1 ml per well) was added to the cells. After 4 h at 37° C., a growth medium with 20% FBS (1 ml per well) was added. The cells were treated at 37° C. with compound A (10^−12−10^−5 M) or DMSO for 24 h before stimulation with TNF-α (50 ng/ml) for 6 h.
(§2) The cell lysate was assayed for luciferase activity using the Dual luciferase kit as described by the manufacturer (Promega). All transfections were performed in triplicate. Firefly luciferase activity was corrected for differences in transfection efficiency by normalizing it to the measured Renilla luciferase activity.
(§3) NF-κB activity was measured by the luciferase assay described in Example 1.

[3] = tested on: Colo-320 DM; assay: Colo-320 DM xenografts in nude mice, tumour growth; assay type: in vivo, NMRI nu/nu mice; details: Colo-320 xenograft, 50 mg/kg, oral gavage
Experimental: All of the animal experiments were conducted according to the guidelines and ethical standards of the Danish Committee for Animal Experiments. Female NMRI nu/nu mice 6 weeks of age were purchased from M&B (Ry, Denmark). The mice were allowed an acclimatisation period of 1-3 weeks before start of the experiments. The nude mice were housed in Scantainers under semi-sterile conditions and all handling of mice was performed in a laminar flow bench.
Colo-320 DM, NMRI nu/nu mice were injected with 5×10^6 cells in 0.2 ml media s.c. in each flank and tumour size was measured as mentioned above. Compound A was given for three weeks by oral gavage from day 8 when the tumour size was about 20 mm^2. Each treatment group consisted of 10 mice.
Statistical Methods In the animal models, tumour sizes were expressed by the mean of the trends in each treatment group. The trend is the linear increment or tumour size, where tumour size is the square root of the (mean) area of the tumour(s). Comparison with controls was expressed as T/C % and calculated as follows:
A=(overall mean tumour size at baseline+mean trend of treatment*intended days of treatment) […]
Overall mean tumour size at baseline=pooling all treatments this is the mean of all baseline values. For each mouse the baseline value is calculated as the square root of the (mean) area of the tumour(s). […]

[4] = tested on: HT-1080 cells; assay: DNA synthesis (tritiated thymidine incorporation) in HT-1080 cells; assay type: cell-based; details: Homo sapiens, 144 h incubation, mean ± SD of two to four experiments
Experimental: DNA synthesis: NYH SCLC, HT-1080, Colo-320, PC-3 and H460 cells (7.5×10^3 cells/ml) were seeded in tissue culture vessels and the test compound were added 2 h after plating. Following an incubation for 144 h tritiated thymidine (5 CI/mmol, Amersham Pharmacia Biotech) was added to the culture at the concentration of 1 μCi/ml, and the cells were incubated for additional 4 h. The incorporated thymidine was measured with a β-counter. Each compound concentration was tested in triplicate.

[5] = tested on: NF-κB; assay: NF-κB-dependent luciferase assay in Colo-320 cells, TNF-α stimulation; assay type: cell-based, human; details: Homo sapiens, compound 24 h before TNF-α 50 ng/ml 6 h, mean ± SD
Experimental: as §1
The Colo-320 cells were seeded with a density of 5×10^4 cells/cm^2 in 6-well plates (NUNC). The following day, the cells were co-transfected with construct DNA and pRL-TK using FuGene Transfection Reagent (Boehringer Mannheim). A mixture of 5 μl Fugene and 95 μl serum free medium (per well) was prepared and incubated for 5 min at room temperature. Then, the mixture was transferred to a mixture of construct DNA (2.5 μg per well) and pRL-TK vector (0.25 μg per well), gently mixed, incubated for 15 min at room temperature and added to the cells. The cells were treated at 37° C. with compound A (10^−12−10^−5 M) or DMSO for 24 h before stimulation with TNF-α (50 ng/ml) for 6 h.
as §2, §3

N#CNC(=Nc1ccncc1)NCCCCCCOc1ccc(Cl)cc1 [compound A, N-(6-(4-chlorophenoxy)hexyl)-N′-cyano-N″-(4-pyridyl)guanidine]
NF-κB DNA-binding activity suppressed compared to the control ([1]; after 0.5 to 4 h of LPS-stimulation): 2 fold | NF-κB DNA-binding activity suppressed compared to the control ([1]; after 24 h of LPS-stimulation): 5 fold | NF-κB activity (IC50 nM) [2]: no inhibition | In vivo xenografts in nude mice T/C (%) [3]: −50% | IC50 [4]: 5.6 ± 0.3 nM | IC50 [5]: 84 ± 33 nM
